Laboratory results taken from paper PMC12655633, “Simultaneous Quantification of Multiple Analytes in Rat Plasma by UHPLC–MS/MS Following Oral Administration of Gastrodiae Rhizoma Extract for Pharmacokinetic Evaluation” (Molecules, 2025).

Experiment: Pharmacokinetic study in rats after oral administration of GR extract (UHPLC-MS/MS of plasma)
Format: in vivo, Sprague-Dawley rats
Conditions: for plasma concentration relative to LLOQ: rat plasma following gavage of GR extract; for AUC(0-inf) / AUC(0-t) / Cmax / Tmax / k el / half-life: male, Sprague-Dawley, po; for AUC(0-inf) / AUC(0-t) / Cmax / Tmax / k el / half-life / CL (clearance) / Vz (apparent volume of distribution) / T1/2: rat plasma, GR extract 9.6 g/kg intragastric gavage, mean ± SD, n = 6; for k el: read-out: λz (terminal elimination rate constant) (converted); for half-life: rat, plasma, 9.6 g/kg
Procedure: To each 100 μL plasma sample, 20 μL of methanol and 20 μL of IS (astragalin, 1 μg/mL) were added and vortexed for 1 min. Extraction was carried out with 800 μL of methanol, followed by vortexing for 5 min at room temperature. The sample was centrifuged at 12,000× g for 10 min. Subsequently, 750 µL of supernatant was transferred to a fresh tube and completely dried under flow nitrogen. The residue was reconstituted in 150 μL of 50% methanol (v/v), vortexed for 5 min, and centrifuged for 10 min. Finally, the resulting supernatant was injected into the UHPLC-MS/MS instrument.
In this study, six SPF-grade male Sprague-Dawley rats (six weeks old, 220 ± 10 g), supplied by Beijing HUAFUKANG Bioscience Co., Inc. (Beijing, China), were housed for seven days under controlled conditions (23 ± 2 °C, 50 ± 10% relative humidity) with ad libitum access to food and water. All rats underwent a 12 h fasting period before dosing, but maintained free access to water. This study’s animal care protocols and experimental procedures adhered to institutional policies and were formally authorized by the Animal Ethics Review Committee of Tianjin University of Traditional Chinese Medicine (Tianjin, China; Ref. TCM-LAEC2025003w1430). Each rat received a GR suspension at a dosage of 9.6 g/kg via intragastric gavage. Prior to dosing, 0.2 mL of blood was drawn from the retro-orbital plexus into a heparin-coated tube. Subsequent samples were collected at 0, 0.03, 0.08, 0.17, 0.25, 0.5, 0.75, 1, 2, 4, 6, 8, 12, 24, 36, and 48 h post-dose. Plasma was separated by centrifugation (6000× g, 10 min, 4 °C) and stored at −80 °C until further analysis.
Plasma concentrations of the fourteen target analytes were determined using the MassHunter Workstation (Agilent, USA; ver. B.09.00). Pharmacokinetic analysis was conducted with DAS software (Medical College of Wannan, Wuhu, Anhui, China; v. 3.0) using non-compartmental model to calculate pharmacokinetic parameters, including Cmax, Tmax, AUC(0–t), AUC(0–∞), clearance (CL), the apparent volume of distribution (Vz), and terminal elimination rate constant (λz) for each analyte. All parameters were summarized as mean ± standard deviation (SD) (n = 6), with the SD representing inter-individual variability in the pharmacokinetic behavior.

| AUC(0-inf) | AUC(0-t) | Cmax | Tmax | k el | half-life | CL (clearance) | Vz (apparent volume of distribution) | Compound | plasma concentration relative to LLOQ | T1/2 |
| --- | --- | --- | --- | --- | --- | --- | --- | --- | --- | --- |
|  |  |  |  |  |  |  |  | COc1cc(C=O)cc(OC)c1O [Syringaldehyde] | below the LLOQ at the majority of time points |  |
|  |  |  |  |  |  |  |  | Nc1ncnc2c1ncn2[C@@H]1O[C@H](CO)[C@@H](O)[C@H]1O [Adenosine] | below the LLOQ at the majority of time points |  |
| 572 ± 271 ng·h/mL | 531 ± 256 ng·h/mL | 210 ± 92.2 ng/mL | 0.22 ± 0.07 h | 1.39e-05 s⁻¹ | 3.62 ± 0.26 h | 676.3 ± 244.2 mL/min/kg | 808.82 ± 409.11 L/kg | O=C(CC(O)(CC(=O)OCc1ccc(O[C@@H]2O[C@H](CO)[C@@H](O)[C@H](O)[C@H]2O)cc1)C(=O)OCc1ccc(O[C@@H]2O[C@H](CO)[C@@H](O)[C@H](O)[C@H]2O)cc1)OCc1ccc(O[C@@H]2O[C@H](CO)[C@@H](O)[C@H](O)[C@H]2O)cc1 [ParishinA, Parishin A] |  |  |
|  |  |  |  |  |  |  |  | O=Cc1ccc(O)c(O)c1 [3,4-Dihydroxybenzaldehyde] | below the LLOQ at the majority of time points |  |
|  |  |  |  |  |  |  |  | COc1cc2c(cc1OC)[C@@H](Cc1ccc(Oc3cc(C[C@@H]4c5cc(OC)c(OC)cc5CCN4C)ccc3O)cc1)N(C)CC2 [Dauricine] | below the LLOQ at the majority of time points |  |
| 1600 ± 384 ng·h/mL | 1580 ± 381 ng·h/mL | 442 ± 147 ng/mL | 0.11 ± 0.05 h | 4.44e-05 s⁻¹ | 6.21 ± 3.33 h | 218 ± 47.2 mL/min/kg | 116.74 ± 60.67 L/kg | O=C(O)c1ccc(O)cc1 [p-Hydroxybenzoic acid] |  |  |
| 13100 ng·h/mL | 11600 ng·h/mL | 2350 ± 1100 ng/mL | 0.75 ± 0.01 h | 1.39e-05 s⁻¹ | ~8 h | 26.3 ± 5.83 mL/min/kg | 41.00 ± 29.24 L/kg | O=C(O)CC(O)(CC(=O)OCc1ccc(O[C@@H]2O[C@H](CO)[C@@H](O)[C@H](O)[C@H]2O)cc1)C(=O)O (some centres unmarked) [Parishin E] |  | 8.08 ± 3.33 h |
| 59 ± 18.5 ng·h/mL | 59 ± 18.5 ng·h/mL | 25 ± 14.2 ng/mL | 0.5 ± 0.02 h | 6.11e-05 s⁻¹ | 2.74 ± 0.42 h | 6170.7 ± 2057.5 mL/min/kg | 1588.63 ± 636.70 L/kg | NC(=O)c1cccnc1 [Nicotinamide] |  |  |
| 674000 ng·h/mL | 672000 ng·h/mL | 90500 ng/mL | 1.63 ± 0.59 h | 3.89e-05 s⁻¹ | 5.31 ± 1.55 h | 0.5 ± 0.17 mL/min/kg | 0.24 ± 0.10 L/kg | OCc1ccc(O)cc1 [p-Hydroxybenzyl alcohol] |  |  |
| 59.1 ± 21 ng·h/mL | 56.7 ± 23.1 ng·h/mL | 22.5 ± 3.04 ng/mL | 0.25 ± 0.01 h | 7.78e-05 s⁻¹ | 5.86 ± 2.99 h | 6285.8 ± 2280.5 mL/min/kg | 4220.87 ± 5603.54 L/kg | O=Cc1ccc(O)cc1 [p-Hydroxybenzaldehyde] |  |  |
|  |  |  |  |  |  |  |  | COc1ccc(-c2cc(=O)c3c(OC)c(OC)c(OC)c(OC)c3o2)cc1OC [Nobiletin] | below the LLOQ at the majority of time points |  |
| 460 ± 222 ng·h/mL | 460 ± 222 ng·h/mL | 319 ± 157 ng/mL | 0.1 ± 0.06 h | 7.22e-05 s⁻¹ | 2.67 ± 0.26 h | 899.2 ± 438.3 mL/min/kg | 215.10 ± 119.59 L/kg | O=C(O)CC(O)(CC(=O)OCc1ccc(O[C@@H]2O[C@H](CO)[C@@H](O)[C@H](O)[C@H]2O)cc1)C(=O)OCc1ccc(O[C@@H]2O[C@H](CO)[C@@H](O)[C@H](O)[C@H]2O)cc1 (some centres unmarked) [Parishin B] |  |  |

| Compound | AUC(0-inf) | AUC(0-t) | Cmax | Tmax | k el | half-life | CL (clearance) | Vz (apparent volume of distribution) | plasma concentration relative to LLOQ | T1/2 |
| --- | --- | --- | --- | --- | --- | --- | --- | --- | --- | --- |
| OCc1ccc(O[C@@H]2O[C@H](CO)[C@@H](O)[C@H](O)[C@H]2O)cc1 [Gastrodin] | 145000 ng·h/mL | 143000 ng·h/mL | 31500 ng/mL | 1.5 ± 0.55 h | 1.67e-05 s⁻¹ | ~8 h | 2.33 ± 0.5 mL/min/kg | 4.29 ± 3.24 L/kg |  | 8.30 ± 1.14 h |
